The source of these data is the OPERA property sets (Mansouri et al. 2018).

SMILES strings stand for the structures.

As to `CCCCC(C(N)=O)n1nnc2ccccc21` (centres undefined), the logP came out at 1.88. Then `CCOC(=O)C(CC)n1nnc2ccccc21` (centres undefined), with 2.34; and `CCCC(C(N)=O)n1nnc2ccccc21` (centres undefined), with 1.38; and `CCOC(=O)C(C)n1nc2ccccc2n1` (centres undefined), with 2.38. Then `c1ccc2nn(C3CCCCC3)nc2c1`, with 3.63. In turn, `CCC(C(N)=O)n1nnc2ccccc21` (centres undefined) returned a logP of 0.88. On to `CC(CCC(=O)O)n1nc2ccccc2n1` (centres undefined), for which the logP is 0.69. To `CC(C(N)=O)n1nc2ccccc2n1` (centres undefined) belongs 0.86.

Compound `CC(C)(C(=O)O)n1nc2ccccc2n1` yielded a logP of 0.64.

As for `c1ccc2c(c1)nnn2C1CCCC1`, the logP came to 2.61.

For the compound `CC(CCC(=O)O)n1nnc2ccccc21` (centres undefined), the logP worked out at 0.15. In turn, `CCCCC(C(=O)OCC)n1nnc2ccccc21` (centres undefined) had a logP of 3.32.

In the case of `CCOC(=O)C(C)n1nnc2ccccc21` (centres undefined), the logP was 1.87. Then `CCCC(C(=O)OCC)n1nc2ccccc2n1` (centres undefined), with 3.38; and `c1ccc2nn(C3CCCC3)nc2c1`, with 3.04; and `CCCC(C(=O)OCC)n1nnc2ccccc21` (centres undefined), with 2.82. To `c1ccc2c(c1)nnn2C1CCCCC1` belongs 3.11; to `CCC(C(N)=O)n1nc2ccccc2n1` (centres undefined), 1.25. Then `CC(CC(=O)O)n1nnc2ccccc21` (centres undefined), with -0.2. In turn, `CCOC(=O)C(CC)n1nc2ccccc2n1` (centres undefined) registered a lipophilicity (logP) of 2.88. Then `CCCC(C(N)=O)n1nc2ccccc2n1` (centres undefined), with 1.75. Then `CC(C)(C(=O)O)n1nnc2ccccc21`, with -0.2; and `CC(C)(C(N)=O)n1nc2ccccc2n1`, with 1.16; and `CC(C)(C(N)=O)n1nnc2ccccc21`, with 0.76. To `CCCCC(C(=O)OCC)n1nc2ccccc2n1` (centres undefined) belongs 3.88; to `CCCCC(C(N)=O)n1nc2ccccc2n1` (centres undefined), 2.28. In turn, `CC(CCC(N)=O)n1nc2ccccc2n1` (centres undefined) came in with a logP of 1.35.

The compound `CCOC(=O)CC(C)n1nnc2ccccc21` (centres undefined) registered a log partition coefficient (logP) of 2.27. To `CCOC(=O)CC(C)n1nc2ccccc2n1` (centres undefined) belongs 2.7.
